Measured values as given in US7462600B2, “Macrolides” (Pfizer Inc, priority 2004, dated 2008).
≈ marks a conversion by molar mass, not a printed value.

Experiments:
Format in all cases: cell-based
[1] = test system: Streptococcus pyogenes 1079; assay: MIC, microtiter broth dilution (NCCLS M100-S14), S. pyogenes 1079 (ermB); details: Streptococcus pyogenes 1079
Summary of the method: (§1)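 Steps: dissolve compound in DMSO to 40 mg/ml stock; dilute in broth across microtiter trays; inoculate strains; record MIC per NCCLS M100-S14.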

[2] = test system: Streptococcus pneumoniae 1175; details: Streptococcus pneumoniae 1175; microtiter broth dilution
Summary of the method: as §1

[3] = test system: Streptococcus pneumoniae 1095; details: Streptococcus pneumoniae 1095; microtiter broth dilution
Summary of the method: as §1

[4] = test system: Haemophilus influenzae 1218; assay: MIC, microtiter broth dilution (NCCLS M100-S14), H. influenzae 1218 (susceptible); details: Haemophilus influenzae 1218
Summary of the method: as §1

[5] = test system: Streptococcus pneumoniae 1016; assay: MIC, microtiter broth dilution (NCCLS M100-S14), S. pneumoniae 1016 (susceptible); details: Streptococcus pneumoniae 1016
Summary of the method: as §1

CCC1OC(=O)C(C)C(=O)C(C)C(OC2OC(C)CC(N(C)C)C2O)C(C)(OC)CC(C)C(=O)C(C)C2N(C3CN(Cc4ccnc5c4ncn5C)C3)C(=O)OC12C (stereo not shown) [Example 1.93, 3-descladinosyl-11,12-dideoxy-6-O-methyl-3-oxo-12,11-(oxycarbonyl-(1-(3-methyl-3H-imidazo[4,5-b]pyridine-7-methyl)-azetidin-3-yl)-imino)-erythromycin A]
MIC S. pyogenes 1079 [1]: 1 µg/mL (≈ 1.23 µM)
MIC S. pneumo. 1175 [2]: 1 µg/mL (≈ 1.23 µM)
MIC S. pneumo. 1095 [3]: <0.063 µg/mL
MIC H. influenzae 1218 [4]: 2 µg/mL (≈ 2.46 µM)
MIC S. pneumo. 1016 [5]: <0.063 µg/mL

CCC1OC(=O)C(C)C(=O)C(C)C(OC2OC(C)CC(N(C)C)C2O)C(C)(OC)CC(C)C(=O)C(C)C2N(C3CN(Cc4ccc5c(c4)CS(=O)(=O)C5)C3)C(=O)OC12C (stereo not shown) [Example 1.94]
MIC S. pyogenes 1079 [1]: 4 µg/mL (≈ 4.72 µM)
MIC S. pneumo. 1175 [2]: 0.25 µg/mL (≈ 0.295 µM)
MIC S. pneumo. 1095 [3]: 0.5 µg/mL (≈ 0.59 µM)
MIC H. influenzae 1218 [4]: 1 µg/mL (≈ 1.18 µM)
MIC S. pneumo. 1016 [5]: <0.063 µg/mL

CC[C@H]1OC(=O)[C@H](C)C(=O)[C@H](C)[C@@H](O[C@@H]2O[C@H](C)C[C@H](N(C)C)[C@H]2O)[C@](C)(OC)C[C@@H](C)C(=O)[C@H](C)[C@H]2N(C3CN(Cc4ccnc5c(C#N)cccc45)C3)C(=O)O[C@]12C [Example 1.95, 3-descladinosyl-11,12-dideoxy-6-O-methyl-3-oxo-12,11-(oxycarbonyl-(1-(quinoline-8-carbonitrile-4-methyl)-azetidin-3-yl)-imino)-erythromycin A]
MIC S. pyogenes 1079 [1]: 1 µg/mL (≈ 1.2 µM)
MIC S. pneumo. 1175 [2]: <0.063 µg/mL
MIC S. pneumo. 1095 [3]: 1 µg/mL (≈ 1.2 µM)
MIC H. influenzae 1218 [4]: 2 µg/mL (≈ 2.4 µM)
MIC S. pneumo. 1016 [5]: <0.063 µg/mL

CCC1OC(=O)C(C)C(=O)C(C)C(OC2OC(C)CC(N(C)C)C2O)C(C)(OC)CC(C)C(=O)C(C)C2N(C3CN(Cc4ccc(C#N)c5ncccc45)C3)C(=O)OC12C (stereo not shown) [Example 1.96, 3-descladinosyl-11,12-dideoxy-6-O-methyl-3-oxo-12,11-(oxycarbonyl-(1-(quinoline-8-carbonitrile-5-methyl)-azetidin-3-yl)-imino)-erythromycin A]
MIC S. pyogenes 1079 [1]: 1 µg/mL (≈ 1.2 µM)
MIC S. pneumo. 1175 [2]: <0.063 µg/mL
MIC S. pneumo. 1095 [3]: <0.063 µg/mL
MIC H. influenzae 1218 [4]: 1 µg/mL (≈ 1.2 µM)
MIC S. pneumo. 1016 [5]: <0.063 µg/mL

CCOc1ccc2ccccc2c1CN1CC(N2C(=O)OC3(C)C(CC)OC(=O)C(C)C(=O)C(C)C(OC4OC(C)CC(N(C)C)C4O)C(C)(OC)CC(C)C(=O)C(C)C23)C1 (stereo not shown) [Example 1.97, 3-descladinosyl-11,12-dideoxy-6-O-methyl-3-oxo-12,11-(oxycarbonyl-(1-(2-ethoxynaphthalene-1-methyl)-azetidin-3-yl)-imino)-erythromycin A]
MIC S. pyogenes 1079 [1]: 2 µg/mL (≈ 2.35 µM)
MIC S. pneumo. 1175 [2]: <0.063 µg/mL
MIC S. pneumo. 1095 [3]: <0.063 µg/mL
MIC H. influenzae 1218 [4]: 0.5 µg/mL (≈ 0.587 µM)
MIC S. pneumo. 1016 [5]: <0.063 µg/mL

CCC1OC(=O)C(C)C(=O)C(C)C(OC2OC(C)CC(N(C)C)C2O)C(C)(OC)CC(C)C(=O)C(C)C2N(C3CN(Cc4c(C)cnc5ccccc45)C3)C(=O)OC12C (stereo not shown) [Example 1.98, 3-descladinosyl-11,12-dideoxy-6-O-methyl-3-oxo-12,11-(oxycarbonyl-(1-(3-methylquinoline-4-methyl)-azetidin-3-yl)-imino)-erythromycin A]
MIC S. pyogenes 1079 [1]: 0.25 µg/mL (≈ 0.304 µM)
MIC S. pneumo. 1175 [2]: <0.063 µg/mL
MIC S. pneumo. 1095 [3]: <0.063 µg/mL
MIC H. influenzae 1218 [4]: 2 µg/mL (≈ 2.43 µM)
MIC S. pneumo. 1016 [5]: <0.063 µg/mL

CCC1OC(=O)C(C)C(=O)C(C)C(OC2OC(C)CC(N(C)C)C2O)C(C)(OC)CC(C)C(=O)C(C)C2N(C3CN(Cc4c(C)cnc5ncccc45)C3)C(=O)OC12C (stereo not shown) [Example 1.99, 3-descladinosyl-11,12-dideoxy-6-O-methyl-3-oxo-12,11-(oxycarbonyl-(1-(3-methyl-1,8-naphthyridine-4-methyl)-azetidin-3-yl)-imino)-erythromycin A]
MIC S. pyogenes 1079 [1]: 0.5 µg/mL (≈ 0.607 µM)
MIC S. pneumo. 1175 [2]: <0.063 µg/mL
MIC S. pneumo. 1095 [3]: <0.063 µg/mL
MIC H. influenzae 1218 [4]: 1 µg/mL (≈ 1.21 µM)
MIC S. pneumo. 1016 [5]: <0.063 µg/mL

CCC1OC(=O)C(C)C(=O)C(C)C(OC2OC(C)CC(N(C)C)C2O)C(C)(OC)CC(C)C(=O)C(C)C2N(C3CN(Cc4c(Cl)cnc5[nH]cnc45)C3)C(=O)OC12C (stereo not shown) [Example 1.100, 3-descladinosyl-11,12-dideoxy-6-O-methyl-3-oxo-12,11-(oxycarbonyl-(1-(6-chloro-3H-imidazo[4,5-b]pyridine-7-methyl)-azetidin-3-yl)-imino)-erythromycin A]
MIC S. pyogenes 1079 [1]: 0.125 µg/mL (≈ 0.15 µM)
MIC S. pneumo. 1175 [2]: <0.063 µg/mL
MIC S. pneumo. 1095 [3]: <0.063 µg/mL
MIC H. influenzae 1218 [4]: 0.5 µg/mL (≈ 0.6 µM)
MIC S. pneumo. 1016 [5]: <0.063 µg/mL
